Data as given in patent publication US10793551B2, “Benzimidazole-indole inhibitors of Mnk1 and Mnk2” (eFFECTOR Therapeutics, Inc., priority 2017, dated 2020).

biological target: T1, MNK; experiment: MNK Biochemical Enzymatic Assay (ADP-Glo kinase assay); settings: recombinant MNK1 (300 μM ATP) / MNK2 (10 μM ATP) described; table does not say which isoform; read-out: MNK Biochemical Enzymatic Assay (IC50) Potency
T1 construct: 10 nM recombinant MNK1 (Life Technologies, PR9138A)
Procedure: Compounds are screened for MNK inhibition using the ADP-Glo kinase assay kit (Promega, catalogue No. V9101). All kinase reactions are performed in Reaction Buffer E (15 mM HEPES pH7.4, 20 mM NaCl, 1 mM EGTA, 10 mM MgCl2, 0.1 mg/ml BGG, and 0.02% Tween-20). Final MNK1 reactions contained 10 nM recombinant MNK1 (Life Technologies, PR9138A), 100 μM MNK substrate peptide Ac-TATKSGSTTKNR-NH2 (American Peptide Company), 300 μM ATP, and varying concentrations of the inhibitory compound of interest. Final MNK2 reactions contained 3 nM recombinant MNK2 (Life Technologies, PV5607), 50 μM MNK substrate peptide Ac-TATKSGSTTKNR-NH2 (American Peptide Company), 10 μM ATP, and varying concentrations of the inhibitory compound of interest. Final DMSO concentration in each reaction is 1%.
Kinase reactions are carried out in 96-well half-area white flat-bottom polystyrene plates in a final volume of 25 al. MNK1/2 enzymes are pre-incubated with compound and peptide substrate for 5 minutes prior to the addition of ATP. After the addition of ATP, kinase reactions are incubated at room temperature for 40 minutes. Reactions are subsequently stopped by the addition of 25 al of ADP-Glo Reagent and incubating for an additional 40 minutes. The final luminescent signal used for kinase activity readout is produced by the addition of 45 al of Kinase Detection Reagent (ADP-Glo kit, Promega) and incubating for 40 minutes. The luminescent signal is detected using a Victor 2 multilabel counter (Perkin Elmer) and the concentration of compound necessary to achieve inhibition of enzyme activity by 50% (IC50) is calculated using signals from an 8-point compound dilution series.
To this end, IC50 values of less than 1 μM are labeled as “+++”, from 1 to 10 μM are labeled as “++”, and from […] are labeled as “+”.

SMILES | IC50 [µM]
CC(C)Cc1c(C(N)=O)ccc2c1ccn2-c1ncnc(N)c1Cl [Compound 8F, 1-(6-amino-5-chloropyrimidin-4-yl)-4-isobutyl-1H-indole-5-carboxamide] | 10 to 100
CC(C)Cc1c(C(N)=O)ccc2c(-c3ncnc(N)c3Cl)cn(C)c12 [Compound 9F, 3-(6-amino-5-chloropyrimidin-4-yl)-7-isobutyl-1-methyl-1H-indole-6-carboxamide] | < 1
CC(C)Cc1c(C(N)=O)ccc2c1cnn2-c1ncnc(N)c1Cl [Compound 12F, 1-(6-amino-5-chloropyrimidin-4-yl)-4-isobutyl-1H-indazole-5-carboxamide] | 1 to 10

Second part, the compound after the results:

IC50 [µM] | SMILES
1 to 10 | CC(C)Cc1c(C(=O)N(C)C)ccc2c1ncn2-c1ncnc(N)c1Cl [Compound 10F, 1-(6-amino-5-chloropyrimidin-4-yl)-4-isobutyl-N,N-dimethyl-1H-benzo[d]imidazole-5-carboxamide]
1 to 10 | CC(C)Cc1c(C(=O)N(C)C)ccc2c1ncn2-c1cc(N)ncn1 [Compound 11F, 1-(6-aminopyrimidin-4-yl)-4-isobutyl-N,N-dimethyl-1H-benzo[d]imidazole-5-carboxamide]
1 to 10 | CC(C)Cc1c(C(N)=O)ccc2c1ncn2-c1ncnc(N)c1Cl [Compound 13F, 1-(6-amino-5-chloropyrimidin-4-yl)-4-isobutyl-1H-benzo[d]imidazole-5-carboxamide]
